Laboratory results reported in patent US20220184222A1, “BICYCLE TOXIN CONJUGATES AND USES THEREOF” (BicycleTx Limited, priority 2019, published 2022).
Starred links: 1 amine or outer side, 2 acyl side, 3 side chain; linkers in the order of their positions; H or OH if unused. Non-standard residues stand in square brackets, D forms with d. Residues, ends and D or L forms follow the SMILES beside them. *: point of attachment. Dolaproine = CO[C@@H]([C@@H]1CCCN1)[C@@H](C)C(=O)O; Dil = CC[C@H](C)[C@H](NC)[C@@H](CC(=O)O)OC; PABC = O=C(OCc1ccc(N[*:1])cc1)[*:2]; X1 = O=C(CCCC(=O)*)ON1C(=O)CCC1=O; X2 = C[C@@H](N*)[C@@H](O)c1ccccc1; Cit = NC(=O)NCCC[C@H](N)C(=O)O; NMeV = CN[C@H](C(=O)O)C(C)C

Tested on: PC-3 xenograft
Test: In vivo efficacy in PC-3 xenograft, male Balb/c nude mice (Example 3)
Parameters: species or system Mus Musculus
Method: The objective of the research is to evaluate the in vivo anti-tumor efficacy of test articles in treatment of PC-3 xenograft in Balb/c nude mice.
The tumor cells were maintained in F-12K medium supplemented with 10% heat inactivated fetal bovine serum at 37° C. in an atmosphere of 5% CO2 in air. The tumor cells were routinely subcultured twice weekly. The cells growing in an exponential growth phase were harvested and counted for tumor inoculation.
Each mouse was inoculated subcutaneously at the right flank with PC-3 tumor cells (10×10^6) in 0.2 ml of PBS for tumor development. 52 animals were randomized when the average tumor volume reached 454 mm^3. The test article administration and the animal numbers in each group were shown in the experimental design table.
The major endpoint was to see if the tumor growth could be delayed or mice could be cured. Tumor volume was measured three times weekly in two dimensions using a caliper, and the volume was expressed in mm3 using the formula: V=0.5 a×b^2 where a and b are the long and short diameters of the tumor, respectively. The tumor size was then used for calculations of T/C value. The T/C value (in percent) is an indication of antitumor effectiveness; T and C are the mean volumes of the treated and control groups, respectively, on a given day.
TGI was calculated for each group using the formula: TGI (%)=[1−(Ti−T0)/(Vi−V0)]×100; Ti is the average tumor volume of a treatment group on a given day, T0 is the average tumor volume of the treatment group on the day of treatment start, Vi is the average tumor volume of the vehicle control group on the same day with Ti, and V0 is the average tumor volume of the vehicle group on the day of treatment start.
Tumor growth inhibition rate for test articles in the PC-3 xenograft model was calculated based on tumor volume measurements at day 20 after the start of the treatment.

Structure (SMILES): CC[C@H](C)[C@@H]([C@@H](CC(=O)N1CCC[C@H]1[C@H](OC)[C@@H](C)C(=O)N[C@H](C)[C@@H](O)c1ccccc1)OC)N(C)C(=O)[C@@H](NC(=O)[C@H](C(C)C)N(C)C(=O)OCc1ccc(NC(=O)[C@H](CCCNC(N)=O)NC(=O)[C@@H](NC(=O)CCCC(=O)ON2C(=O)CCC2=O)C(C)C)cc1)C(C)C [BT5528] (X1-V[Cit][PABC][NMeV]V[Dil][Dolaproine]-X2)
- tumor relapse after ceasing the treatment (0.5 mg/kg qw or 0.5 mg/kg q2w): obvious tumor relapse after ceasing the treatment
- tumor relapse after ceasing the treatment (1.5 mg/kg q2w): tumor relapse after ceasing the treatment
- tumor relapse after ceasing the treatment (1.5 mg/kg qw): didn't show any tumor relapse until day 48
- further treatment after relapse (1.5 mg/kg qw from day 52 in mice first treated with 0.5 mg/kg qw or q2w): worked well on the tumor regression
- further dosing after relapse (1.5 mg/kg qw from day 52 in mice first treated with 1.5 mg/kg q2w): didn't work on complete tumor regression
- T/C (0.167 mpk i.v. qw, day 20): 50.2%
- TGI (0.167 mpk i.v. qw, day 20): 61.4%
- Tumor volume (0.167 mpk i.v. qw, day 20): 1188 mm^3
- T/C (0.5 mpk i.v. q2w, day 20): 22.4%
- TGI (0.5 mpk i.v. q2w, day 20): 96.0%
- Tumor volume (0.5 mpk i.v. q2w, day 20): 530 mm^3
- Tumor volume (0.5 mpk i.v. qw, day 0): 451 mm^3
- Tumor volume (0.5 mpk i.v. qw, day 2): 622 mm^3
- Tumor volume (0.5 mpk i.v. qw, day 4): 519 mm^3
- Tumor volume (0.5 mpk i.v. qw, day 6): 460 mm^3
- Tumor volume (0.5 mpk i.v. qw, day 8): 398 mm^3
- Tumor volume (0.5 mpk i.v. qw, day 10): 329 mm^3
- Tumor volume (0.5 mpk i.v. qw, day 13): 260 mm^3
- Tumor volume (0.5 mpk i.v. qw, day 15): 249 mm^3
- Tumor volume (0.5 mpk i.v. qw, day 17): 231 mm^3
- T/C (0.5 mpk i.v. qw, day 20): 9.9%
- TGI (0.5 mpk i.v. qw, day 20): 111.4%
- Tumor volume (0.5 mpk i.v. qw, day 20): 234 mm^3
- T/C (1.5 mpk i.v. q2w, day 20): 5.4%
- TGI (1.5 mpk i.v. q2w, day 20): 117.0%
- Tumor volume (1.5 mpk i.v. q2w, day 20): 128 mm^3
- Tumor volume (1.5 mpk i.v. qw, day 0): 458 mm^3
- Tumor volume (1.5 mpk i.v. qw, day 2): 587 mm^3
- Tumor volume (1.5 mpk i.v. qw, day 4): 494 mm^3
- Tumor volume (1.5 mpk i.v. qw, day 6): 363 mm^3
- Tumor volume (1.5 mpk i.v. qw, day 8): 283 mm^3
- Tumor volume (1.5 mpk i.v. qw, day 10): 237 mm^3
- Tumor volume (1.5 mpk i.v. qw, day 17): 155 mm^3
- T/C (1.5 mpk i.v. qw, day 20): 5.5%
- TGI (1.5 mpk i.v. qw, day 20): 117.2%
- Tumor volume (1.5 mpk i.v. qw, day 20): 131 mm^3
- treatment of relapsed Docetaxel-pretreated mice (BT5528 1.5 mg/kg qw from day 42): worked well on tumor regression
- measurable tumor regression by day after dosing (PC-3 xenograft): ≤ 4 days
- efficacy with intermittent dosing (dosing every 2 weeks): efficacious with intermittent dosing
